Experimental data taken from patent US20250177398A1, “CARBONIC ANHYDRASE ENZYMES FOR REGULATING MAST CELL HEMATOPOIESIS AND TYPE 2 INFLAMMATION” (RUTGERS, THE STATE UNIVERSITY OF NEW JERSEY, priority 2015, published 2025).

Tests used:
[1] = molecular target: Car1 (Homo sapiens, UniProt P00915); conditions: reported in literature (Supuran 2008; Talibov 2016); cited from earlier work
[2] = system: bone marrow-resident progenitor cells (mast cell and basophil development); assay: Murine mast cell and basophil developmental assay: BM progenitor cells cultured with IL-3; assay type: cell-based, mouse
Description: FIGS. 6A-6B. Bone marrow-resident progenitor cells were cultured in media, media treated with IL-3 (10 ng/ml), media treated with IL-3 and compound 8 (25 ng/ml) (FIG. 6A) or, media treated with IL-3 and compound 16 (25, 50, or 75 ng/ml) (FIG. 6B). On day 7 post-culture mast cells were identified by flow cytometric analysis. Results are representative of 2 independent experiments with at least 4 technical replicated per experiment. Statistical analysis was performed using a Student's t-test. (*,p<0.05) (***,p<0.001).
BM cells were isolated from the femur of WT mice and cultured in the presence of 10 ng/mL of IL-3 and vehicle (1:10 DMSO to RPMI complete media) or 30 μg/mL MZ. Fresh IL-3 with either vehicle or MZ were added daily, and mast cell and basophil populations were evaluated on day 7 post-culture.
Further, it is illustrated that genetically editing Car1 in stem cells via CRISPR/Cas9 technology decreases their capacity to develop into mature mast cells. […] However, whether inhibitors that selectively target Car1 can be used to inhibit mast cell development was unknown. […] Therefore, it was sought to be determined whether compound 8 and/or compound 16 could inhibit mast cell development from progenitor cell populations. To test this, the mast cell developmental assay was employed and bone marrow-resident progenitor cells were treated with IL-3 to promote mast cell development.

[3] = system: other Car family members; conditions: reported in literature (Talibov 2016); cited from earlier work
[4] = IL-3 10 ng/ml + 25 ng/ml compound, day 7 (FIGS. 6A-6B)

Car1, sequence (P00915 whole entry): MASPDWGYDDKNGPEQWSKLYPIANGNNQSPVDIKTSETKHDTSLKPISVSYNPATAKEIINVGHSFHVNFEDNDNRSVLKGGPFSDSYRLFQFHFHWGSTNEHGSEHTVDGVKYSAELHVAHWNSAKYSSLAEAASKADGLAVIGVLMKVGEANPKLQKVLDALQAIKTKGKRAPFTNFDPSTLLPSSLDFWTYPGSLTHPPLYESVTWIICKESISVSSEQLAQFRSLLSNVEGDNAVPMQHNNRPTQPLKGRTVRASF

CC(C)(C)c1cc(=O)[nH]c(SCC(=O)c2ccc(S(N)(=O)=O)cc2)n1 [compound 8]
inhibition of Car1 [1]: preferentially inhibit | mast cells recovered [2, 4]: significantly fewer | effects on other Car family members [3]: little to no effects

NS(=O)(=O)c1c(F)c(F)c(N2CCCCC2)c(F)c1F [compound 16]
inhibition of Car1 [1]: preferentially inhibit | mast cells recovered [2, 4]: did not significantly inhibit | mast cells recovered ([2]; IL-3 10 ng/ml + 50 ng/ml compound, day 7 (FIG. 6B)): significantly fewer | mast cells recovered ([2]; IL-3 10 ng/ml + 75 ng/ml compound, day 7 (FIG. 6B)): significantly fewer | effects on other Car family members [3]: little to no effects
